Patent US9216169B2, “Pharmaceutical composition comprising candesartan or ester thereof and chlortalidone, and use thereof” (TIANJIN INSTITUTE OF PHARMACEUTICAL RESEARCH, priority 2011, dated 2015)

Assays:
patients = details: study in 1714 patients; cited from earlier work
[1] = clinical studies; cited from earlier work
[2] = cited from earlier work
[3] = test system: Spontaneously hypertensive rats (SHR); assay: SBP of SHR by Tail-Cuff method, first administration and continuous administration for 14 days (Examples 8-12); format: in vivo, rat; details: for AUC0-24h: after first administration
Procedure: Spontaneously hypertensive rats (SHR), male, are provided by Beijing Vital River Laboratory Animal Technology Co., Ltd. The number of animal production license is SCXK (Jing) 2007-0001. Animals are raised in an observation room at the room temperature of 25±2° C. controlled by central air-conditioning system and with artificial lighting of 12 h/day. The animals are raised in separate cages sized 43×27×18 cm with 4 animals for each cage. The rats are free access to water and are fed with block fodder everyday, and the water supply is refreshed once a day. The temperature of the room for measuring the blood pressure is 26±2° C.
The blood pressure is measured by Tail-Cuff method and the hear rate is measured according to the pulse frequency. Animals are pre-trained for the blood pressure measurement for more than 2 weeks so as to adapt to the environment of measurement. Animals are placed in a isothermal bag at 37° C. to be prewarmed for 5 to 10 min for formal measurement. Blood pressures of the rats are measured from tail arteries for 2 to 3 times at rest states, and an average value is taken as each blood pressure measured value. All data are collected and preserved by a computer.
SHRs with systolic blood pressures (SBPs)>190 mmHg are selected for experiment.
Rats are randomly divided into 20 groups according to their blood pressures with each group having 8-10 rats. Animals are fasted overnight and measured for the blood pressure of pre-administration at the day of experiment, and then administered drugs in accordance with the following method:
The single-drug group is intragastrically administered candesartan (Can) or chlorthalidone (Chl), with the dosage of Can of 0.1, 0.2, 0.4 mg/kg respectively and the dosage of Chl of 0.3125, 0.625, 1.25 mg/kg respectively;
According to the clinical single-drug specification, the ratios of Can+Chl are set as follows:
For the ratio of Can:Chl=1:6.25, one dose of 0.1+0.625 mg/kg is set;
For the ratio of Can:Chl=1:3.125, two doses of 0.2+0.625 and 0.4+1.25 mg/kg are set;
For the ratio of Can:Chl=1.28:1, one dose of 0.4+0.3125 mg/kg is set;
For the ratio of Can:Chl=2.56:1, one dose of 0.4+0.15625 mg/kg is set;
The administration volumes are all 5 mL/kg. Rats are continuously administered for 14 days. SBPs are measured 2, 4, 8, 12 and 24 hours after the first administration. On the day of 3, 7, 14 days after administration, the blood pressures are measured before administration and 5 hours after administration. Areas under blood pressure reduction-time curve from 0 to 24 h and from 0 to 14 days (AUC0-24h, AUC0-14d) are calculated.
The calculated results are expressed as mean±standard error ( x±SE); statistical treatment is performed using unpaired t test between groups to compare the significance of the average difference; the interaction between drugs are determined by using factorial analysis of variance, and P<0.05 means the difference has statistical significance.

[4] = 12.5-25 mg/d of chlorthalidone, clinical studies

NS(=O)(=O)c1cc(C2(O)NC(=O)c3ccccc32)ccc1Cl (centres unmarked) [Chl, Chlorthalidone]
reduction of SBP compared with the basic value (patients): 12.7-15.9 mmHg
valid control rate of blood pressure [1]: 68.2%
lowering of 24-hour blood pressure [2, 4]: 12.4 mmHg
lowering of night-time blood pressure [2, 4]: 13.5 mmHg
antihypertensive efficacy relative to that of hydrochlorothiazide ([2]; according to Khoska): 1.5-2 times
AUC0-14d ([3]; Chl 0.3125 mg/kg i.g. for 14 days): −125.9 mmHg · d
AUC0-24h ([3]; Chl 0.3125 mg/kg i.g.): −133.1 mmHg · h
AUC0-14d ([3]; Chl 0.625 mg/kg i.g. for 14 days): −134.5 mmHg · d
AUC0-24h ([3]; Chl 0.625 mg/kg i.g.): −190.4 mmHg · h
AUC0-14d ([3]; Chl 1.25 mg/kg i.g. for 14 days): −174.2 mmHg · d
AUC0-24h ([3]; Chl 1.25 mg/kg i.g.): −208.1 mmHg · h
